Data: PMC6382874, “Succinylation-dependent mitochondrial translocation of PKM2 promotes cell survival in response to nutritional stress” (Cell Death & Disease, 2019)
Where two headings read alike, the source gives them in different places.

Legend:
PKM1 = target: T1, PKM1 (Homo sapiens, UniProt P14618); assay: fluorescent PK-LDH coupled assay, PKM1; type: biochemical; conditions: recombinant enzyme, PK-LDH coupled assay; read-out: IC50 (PKM1)
T1 construct: His-tag (N); made in house; host or cells: Escherichia coli BL21
T1 sequence (P14618 1-531 isoform P14618-2): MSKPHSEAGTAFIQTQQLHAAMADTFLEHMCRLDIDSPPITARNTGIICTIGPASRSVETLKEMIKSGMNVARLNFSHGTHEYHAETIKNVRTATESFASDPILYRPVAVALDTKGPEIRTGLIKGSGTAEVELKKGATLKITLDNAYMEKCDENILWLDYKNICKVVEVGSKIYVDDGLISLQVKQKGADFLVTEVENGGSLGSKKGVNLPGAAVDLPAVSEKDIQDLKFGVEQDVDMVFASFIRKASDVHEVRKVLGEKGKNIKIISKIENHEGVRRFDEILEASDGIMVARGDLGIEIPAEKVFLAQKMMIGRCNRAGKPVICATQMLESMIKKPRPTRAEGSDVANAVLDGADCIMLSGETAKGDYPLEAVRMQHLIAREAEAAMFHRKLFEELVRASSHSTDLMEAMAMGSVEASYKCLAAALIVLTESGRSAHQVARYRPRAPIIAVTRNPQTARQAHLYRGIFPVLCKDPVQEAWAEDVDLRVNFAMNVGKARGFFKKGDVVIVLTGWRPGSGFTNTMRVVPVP
Method: (§1) Human cDNA for PKM2, PKM1, and VDAC3 were separately cloned into a pET28a (+) and pGEX-4T-1 vector with an N-terminal His-tag and N-terminal GST-tag and purified from the Escherichia coli strain BL21 (Invitrogen) using Ni–agarose beads and GST agarose beads (Qiagen) as described previously. PKL was purchased from Sino Biological Inc. in China.
(§2) Pyruvate kinase activity was measured with a fluorescent pyruvate kinase–lactate dehydrogenase coupled assay as described previously. All compounds were tested in a kinetic mode by coupling the generation of pyruvate by pyruvate kinase to the depletion of NADH through lactate dehydrogenase. For PKM2, 40 μL of buffer (50 mM Tris–HCl, pH 7.5, 10 mM KCl, 5 mM MgCl2), 1 μL of compound and 5 μL of enzyme solution were dispensed into Corning black solid 96-well plates and incubated for 15 min. Totally, 55 μL of substrate mix (final concentration, 0.5 mM PEP, 4.0 mM ADP, 0.12 mM NADH, 0.25 mM FBP, and 1 unit LDH) were then added, and the plates were placed in a FlexStation3 (Molecular Devices), followed by determination of NADH fluorescence at 30 s exposure intervals for 3–6 min. Data were collected on a FlexStation3.

PKL = target: T2, PKL (Homo sapiens, UniProt P30613); assay: fluorescent PK-LDH coupled assay, PKL; type: biochemical; conditions: PK-LDH coupled assay; read-out: IC50 (PKL)
T2 construct: purchased Sino Biological Inc
T2 sequence (P30613 1-543 isoform P30613-2, species assumed): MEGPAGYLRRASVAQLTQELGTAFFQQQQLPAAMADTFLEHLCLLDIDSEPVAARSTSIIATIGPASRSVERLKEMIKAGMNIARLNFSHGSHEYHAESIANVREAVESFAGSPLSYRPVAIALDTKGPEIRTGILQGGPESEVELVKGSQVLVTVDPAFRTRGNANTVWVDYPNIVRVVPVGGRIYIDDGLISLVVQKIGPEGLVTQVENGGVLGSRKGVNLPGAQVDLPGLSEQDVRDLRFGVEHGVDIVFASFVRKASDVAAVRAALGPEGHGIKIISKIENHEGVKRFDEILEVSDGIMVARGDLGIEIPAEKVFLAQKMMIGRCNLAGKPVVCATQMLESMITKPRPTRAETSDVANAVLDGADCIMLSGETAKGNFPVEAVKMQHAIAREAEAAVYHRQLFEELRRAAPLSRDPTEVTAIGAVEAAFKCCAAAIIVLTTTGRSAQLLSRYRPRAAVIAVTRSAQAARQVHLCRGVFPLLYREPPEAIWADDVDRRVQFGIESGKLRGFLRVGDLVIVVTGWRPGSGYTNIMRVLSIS
Method: as §1, §2

HCT116 cells [1] = assay: cell viability test, HCT116; type: cell-based, human; conditions: cell viability, 48 h, read-out: IC50 (HCT116)
Method: (§3) We assessed the anti-tumor effects of compound 8 by evaluation of cancer cell viability. Compound 8 reduced cell viability with an IC50 of about 5 µM in MTT reduction assays in HCT116, MCF7, and H1299 cells (Table 2). […] To determine whether cancer cell death brought about by compound 8 is PKM2 dependent, PKM2 was knocked down in HCT116 cells using two different shRNA sequences that specifically targeted exon 10 without interfering with PKM1 expression. Compound 8 is an inhibitor which causes a loss of function of PKM2. If PKM2 is a specially targeted by compound 8, its knockdown should render cells more vulnerable to compound 8-mediated PKM2 inhibition since shRNA and compound 8 work synergistically by reducing the intracellular drug target concentration.
(§4) Cells were seeded in 96-well plates at 5000 cells/well in DMEM media overnight. Cells were treated with different concentrations of test compound for 48 h at 37 °C in 5% CO2. Cell viability was assayed with the MTS assay (Promega) and trypan blue staining according to the manufacturer’s instructions.

MCF7 cells = assay: cell viability test, MCF7; type: cell-based; conditions: cell viability, 48 h, read-out: IC50 (MCF7)
Method: as §3, §4

PKM2-VDAC3 interaction = target: T3, PKM2-VDAC3 interaction (Homo sapiens, UniProt P14618); assay: PKM2-VDAC3 interaction, stag pull down in HCT116 cells; type: cell-based; conditions: 20 µM, 8 h
T3 construct: expressed in transfected cells; host or cells: HCT116
T3 sequence (P14618 whole entry): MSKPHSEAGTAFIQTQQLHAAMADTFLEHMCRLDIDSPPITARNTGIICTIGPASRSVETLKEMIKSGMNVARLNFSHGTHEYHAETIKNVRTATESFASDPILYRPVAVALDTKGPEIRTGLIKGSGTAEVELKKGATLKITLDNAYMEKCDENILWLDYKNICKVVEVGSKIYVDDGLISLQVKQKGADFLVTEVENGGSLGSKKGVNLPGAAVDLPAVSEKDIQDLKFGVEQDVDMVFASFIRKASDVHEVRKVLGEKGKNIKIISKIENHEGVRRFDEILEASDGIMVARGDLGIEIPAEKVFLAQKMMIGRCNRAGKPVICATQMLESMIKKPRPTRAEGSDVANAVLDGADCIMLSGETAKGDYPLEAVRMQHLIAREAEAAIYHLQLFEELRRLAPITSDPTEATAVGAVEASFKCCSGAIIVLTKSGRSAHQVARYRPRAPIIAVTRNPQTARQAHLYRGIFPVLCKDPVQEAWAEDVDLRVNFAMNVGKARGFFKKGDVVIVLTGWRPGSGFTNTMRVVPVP
Method: Fig. 6 Compound 8 blocks PKM2 mitochondrial translocation under nutritional stress and inhibits tumor growth in vivo. a Compound 8 blocks glucose starvation induced PKM2 mitochondrial translocation. Isolation of mitochondria and immunoblot of PKM2, tubulin and Tom 40 were carried out with or without compound 8 treatment. b Compound 8 disrupts interaction of PKM2 and VDAC3. HCT116 cells were transfected with HA-tagged PKM2, cells were harvested and subjected to stag pull down after 8 h 20 µM compound 8 treatment. c Compound 8 induces VDAC3 for degradation. cells were harvested and evaluated VDAC3 protein levels after 8 h 10 or 20 µM compound 8 treatment. d, e Compound 8 caused a decrease in the rate of NADH oxidation. After 8 h of treatment with 20 µM compound 8, HCT116 cells mitochondria were isolated for NADH oxidation assays. NAD/NADH ratios in HCT116 cell lysates were evaluated by LC–MS. f Compound 8 inhibited ATP production in HCT116 cells. g The tumor volume (n = 7) of HCT116 xenografts from mice with intraperitoneal injection of compound 8 and vehicle control
About 2.5 mg whole cellular extracts were prepared in 700 μl RIPA buffer (50 mM Tris-HCl, pH 8.0, 150 mM NaCl, 1.5 mM MgCl2, 0.1% sodium dodecyl sulfate (SDS), 0.5% deoxycholate, 0.5% NP-40, 1 mM phenylmethylsulfonyl fluoride (PMSF), 1× protease inhibitor cocktail (Roche)). […]

HCT116 cells [2] = assay: ATP measurement, Cell Titer-Glo, HCT116 cells; type: cell-based, human; conditions: 10 or 20 μM, 8 h
Method: HCT116 cells were cultured in DMEM containing 10% FBS and seeded into six-well plates. Twenty-four hour after seeding, the medium was changed to DMEM containing 10 or 20 μM compound 8 for 8 h. ATP levels were measured using the Cell Titer-Glo Luminescent Cell Viability Assay (Promega).

PKM2 = PKM2 (Homo sapiens, UniProt P14618); assay: binding to PKM2 measured by MicroCal iTC200; parameters: His-tag (N); made in house; host or cells: Escherichia coli BL21
Chain of PKM2 (P14618 whole entry): as above
Excerpt: We tested modifications of target compounds for PKM2 inhibitory activity.
Fig. 5 Identification and characterization of PKM2 inhibitors. a PKM2 inhibitors. […] It prints only the data set name 'Data: pkm2_NDH', so the substance label is left empty. / Panel b, N: small print, 0.941 ±0.0712, digits uncertain / Panel b, K: small print, 8.63E4 ±3.63E4, the digits 8, 6 and 3 are uncertain / Panel b, ΔH: small print, -5962 ±675.9, the digits 5, 9 and 6 are uncertain / Panel b, ΔS: small print, 2.59, the digits 5 and 9 are uncertain
as §1

For `CCCN(CCC)P(N)(=O)OCC1=CC(=O)c2ccccc2C1=O` (stereo not drawn) [Compound 8], which IC50 (PKM1) is on record?
The IC50 was 10.5 ± 1.52 µM.

And the IC50 (PKL)?
Its IC50 is 20.4 ± 3.54 µM.

And the IC50 (HCT116 cells [1]; Homo sapiens, HCT-116, 48 h)?
The IC50 was about 5 µM.

What about the IC50 (HCT116 cells [1]) of the same compound?
Its IC50 is 5.19 ± 1.74 µM.

And the IC50 (MCF7 cells; Homo sapiens, MCF7, 48 h)?
Its IC50 is about 5 µM.

What about the IC50 (MCF7 cells) of the same compound?
The IC50 was 5.4 ± 1.14 µM.

What about the “interaction of PKM2 with VDAC3” value (PKM2-VDAC3 interaction) of the same compound?
Its value is “abolished its interaction with VDAC3”.

And the “cellular ATP production” value (HCT116 cells [2])?
The value was “inhibited cellular ATP production in a concentration-dependent manner”.

And the Kd (PKM2)?
The Kd was about 11 µM.
